Like-named read-outs stand apart in the source and are kept apart here.
Legend:
[1] = tested on: MCF-12A cells; assay: In vitro cytotoxicity assessment, alamar blue assay, 24-h exposure; type: cell-based, human; settings: for Decrease in activity towards MCF-12A cells relative to MCF-7 cells (selectivity): IC50 MCF-12A vs IC50 MCF-7, 24 h
Protocol: The MCF-7 (human breast cancer) and MCF-12A (non-tumourigenic human breast) cell lines were obtained from the Technological University Dublin (TUDublin, City Campus) internal cell bank and commercially from the American Type Culture Collection (ATCC), respectively. Both cell lines were cultured using Dulbecco’s Modified Eagle Medium/Nutrient Mixture F-12 Ham (DMEM-F12) (Sigma, Ireland) (Cat# D6421) media. The MCF-7 media was supplemented with 10% Foetal Bovine Serum (Sigma, Ireland) (Cat# F7524) and 1% L-Glutamine (Sigma, Ireland) (Cat# 592020C). The MCF-12A media was supplemented with 5% Equine Serum (Sigma, Ireland) (Cat# H0146) 1.25% L-Glutamine (Sigma, Ireland) (Cat# 592020C), 20 ng/ml Human Epidermal Growth Factor (Thermo Fisher Scientific, Ireland) (Cat# PHG0313), 0.01 mg/ml insulin (Thermo Fisher Scientific, Ireland)(Cat# 12585014) and 500 ng/ml hydrocortisone (Sigma, Ireland) (Cat# H0888). The cells were grown in T75 culture flasks (Sarstedt, Germany) (Cat# 83.3911.002) and were incubated in a 5% CO2 atmosphere at 37 ℃. The cells were monitored daily, and once 80–90% confluence was reached, they were subcultured with an enzymatic dissociation method using trypsin. Both cell lines were routinely subcultured for 1 week prior to beginning experimental work, to ensure the cells had adapted to the environment.
The MCF-7 and MCF-12A cells were seeded at a density of 1 × 10^4 in 96-well flat bottom plates (Sarstedt, Germany) (Cat# 83.3924) and incubated in a 5% CO2 atmosphere at 37 ℃ for 24 h prior to exposure to the complexes. Following the incubation period, the media was removed, and cells were washed with sterile phosphate-buffered saline (PBS). […] All agents were diluted in supplemented cell culture media, and the cells were exposed to a concentration range of 0.5 μM–100 μM for 24 h in the conditions outlined previously. Following the exposure period, the drug-containing media was removed, and cells were washed three times with PBS, ensuring complete removal of the test agents. A 5% working solution of Alamar Blue (Thermo Fisher Scientific, Ireland) (Cat# DAL1100) was prepared in dark conditions using unsupplemented cell culture media. 100 μl of the solution was added to each well, and the cells were incubated for 3 h. Following incubation, absorbance values were obtained using a Varioskan Lux (Thermo Scientific, USA) at 570 nm and 600 nm wavelengths. Each exposure was carried out in triplicate plates and was repeated three independent times.
The software packages Microsoft^Ⓡ Excel (USA) and GraphPad Prism (Ver. 10.0.3) (GraphPad, USA) were used to analyse the alamar blue data. The treated sample values were first normalised to the negative control values. After normalisation, the mean and standard deviations (SD) were established using Microsoft^Ⓡ Excel. The statistical analysis package GraphPad was then used to determine the IC25 and IC50 concentrations. […] A p value of 0.05 or lower is considered to be statistically significant.

[2] = tested on: MCF-7 cells; assay: as above; type: cell-based, human
Protocol: The MCF-7 (human breast cancer) and MCF-12A (non-tumourigenic human breast) cell lines were obtained from the Technological University Dublin (TUDublin, City Campus) internal cell bank and commercially from the American Type Culture Collection (ATCC), respectively. Both cell lines were cultured using Dulbecco’s Modified Eagle Medium/Nutrient Mixture F-12 Ham (DMEM-F12) (Sigma, Ireland) (Cat# D6421) media. The MCF-7 media was supplemented with 10% Foetal Bovine Serum (Sigma, Ireland) (Cat# F7524) and 1% L-Glutamine (Sigma, Ireland) (Cat# 592020C). The MCF-12A media was supplemented with 5% Equine Serum (Sigma, Ireland) (Cat# H0146) 1.25% L-Glutamine (Sigma, Ireland) (Cat# 592020C), 20 ng/ml Human Epidermal Growth Factor (Thermo Fisher Scientific, Ireland) (Cat# PHG0313), 0.01 mg/ml insulin (Thermo Fisher Scientific, Ireland)(Cat# 12585014) and 500 ng/ml hydrocortisone (Sigma, Ireland) (Cat# H0888). The cells were grown in T75 culture flasks (Sarstedt, Germany) (Cat# 83.3911.002) and were incubated in a 5% CO2 atmosphere at 37 ℃. […] Following the incubation period, the media was removed, and cells were washed with sterile phosphate-buffered saline (PBS). […] Following the exposure period, the drug-containing media was removed, and cells were washed three times with PBS, ensuring complete removal of the test agents. A 5% working solution of Alamar Blue (Thermo Fisher Scientific, Ireland) (Cat# DAL1100) was prepared in dark conditions using unsupplemented cell culture media. 100 μl of the solution was added to each well, and the cells were incubated for 3 h. […] Each exposure was carried out in triplicate plates and was repeated three independent times. The software packages Microsoft^Ⓡ Excel (USA) and GraphPad Prism (Ver. 10.0.3) (GraphPad, USA) were used to analyse the alamar blue data. The treated sample values were first normalised to the negative control values. After normalisation, the mean and standard deviations (SD) were established using Microsoft^Ⓡ Excel. The statistical analysis package GraphPad was then used to determine the IC25 and IC50 concentrations.

[3] = MCF-12A, 24-hour exposure, per one metal centre, mean ± S.D. (N=3)
[4] = MCF-12A, 24-hour exposure, per one metal centre, mean ± S.D. (N=3), read-out: IC50 calculated per one metal centre
[5] = MCF-7, 24-hour exposure, per one metal centre, mean ± S.D. (N=3)
[6] = MCF-7, 24-hour exposure, per one metal centre, mean ± S.D. (N=3), read-out: IC50 calculated per one metal centre
[7] = MCF-12A, 24-h exposure, 25% reduction in metabolic activity, mean ± SD (N = 3)
[8] = MCF-7, 24-h exposure, 25% reduction in metabolic activity, mean ± SD (N = 3)

Row | Molecule | Cytotoxic activity IC25 ± SD [1] | IC50 [1] | IC25 calculated per one metal centre [1, 3] | IC50 [1, 4] | Cytotoxic activity IC25 ± SD [2] | IC50 [2] | IC25 calculated per one metal centre [2, 5] | IC50 [2, 6] | Cytotoxic activity IC25 ± SD [1, 7] | Cytotoxic activity IC25 ± SD [2, 8] | IC50 ([1]; Homo sapiens, MCF-12A, 24 h, read-out: IC50 calculated per one metal centre) | IC50 ([2]; Homo sapiens, MCF7, MCF-7, 24-h exposure, 50% reduction in metabolic activity, mean ± SD (N = 3), read-out: Cytotoxic activity IC50 ± SD) | Decrease in activity towards MCF-12A cells relative to MCF-7 cells (selectivity) ([1]; listed as 7) | Decrease in activity towards MCF-12A cells relative to MCF-7 cells (selectivity) ([1]; listed as complex 7) | IC50 ([1]; MCF-12A, 24-h exposure, 50% reduction in metabolic activity, mean ± SD (N = 3), read-out: Cytotoxic activity IC50 ± SD) | IC50 ([2]; MCF-7, 24-h exposure, 50% reduction in metabolic activity, mean ± SD (N = 3), read-out: Cytotoxic activity IC50 ± SD)
1 | O=C([O-])CCCCCCC(=O)[O-].[Cu+2].[Cu+2].[O-][Cl+3]([O-])([O-])[O-].[O-][Cl+3]([O-])([O-])[O-].c1cnc2c(c1)ccc1cccnc12.c1cnc2c(c1)ccc1cccnc12.c1cnc2c(c1)ccc1cccnc12.c1cnc2c(c1)ccc1cccnc12 [Complex 1, [Cu2(oda)(phen)4](ClO4)2] | 4.86 ± 1.91 µM | 6.14 ± 0.37 µM | 9.72 ± 3.82 µM | 12.3 ± 0.74 µM | 1.77 ± 0.14 µM | 4.76 ± 0.3 µM | 3.54 ± 0.28  µM | 9.52 ± 0.6 µM | – | – | – | – | – | – | – | –
2 | O=C([O-])CCCCCCC(=O)[O-].[Cu+2].c1cnc2c(c1)ccc1cccnc12.c1cnc2c(c1)ccc1cccnc12 [Complex 2, [Cu(oda)(phen)2]] | – | – | 0.68 ± 0.13 µM | 1.65 ± 0.13 µM | – | – | 2.04 ± 0.24  µM | 6.72 ± 0.6 µM | 0.68 ± 0.13 µM | 2.04 ± 0.24 µM | – | – | – | – | – | –
3 | O=C([O-])CCCCCCC(=O)[O-].[Ag+].[Ag+].c1cnc2c(c1)ccc1cccnc12.c1cnc2c(c1)ccc1cccnc12.c1cnc2c(c1)ccc1cccnc12 [Complex 4, [Ag2(oda)(phen)3]] | – | – | 9.82 ± 0.28 µM | – | – | – | 11.04 ± 1.78  µM | – | 4.91 ± 0.14 µM | 5.52 ± 0.89 µM | – | – | – | – | – | –
4 | O=C([O-])CCCCCCCCCC(=O)[O-].[Ag+].[Ag+].c1cnc2c(c1)ccc1cccnc12.c1cnc2c(c1)ccc1cccnc12.c1cnc2c(c1)ccc1cccnc12 [Complex 5, [Ag2(udda)(phen)3]] | – | – | 11.04 ± 1.0 µM | – | – | – | 11.68 ± 0.24  µM | – | 5.52 ± 0.51 µM | 5.84 ± 0.12 µM | – | – | – | – | – | –
5 | c1cnc2c(c1)ccc1cccnc12 [Phen, 1,10-Phenanthroline] | – | – | 11.14 ± 4.39 µM | – | – | – | 9.02 ± 4.26  µM | – | 11.14 ± 4.39 µM | 9.02 ± 4.26 µM | 20.9 ± 1.96 µM | 33.2 ± 9.36 µM | – | – | – | –
6 | {[Mn2(oda)3(phen)4]^2−[Mn2(oda)(phen)4 (H2O)2]^2+} [Complex 7] | – | – | 1.52 ± 1.56 µM | 104 ± 30.8 µM | – | – | 2.80 ± 0.44  µM | 11.2 ± 0.52 µM | 0.38 ± 0.39 µM | 0.70 ± 0.11 µM | – | – | almost tenfold reduction in cytotoxicity | almost tenfold decrease in activity | 26.1 ± 7.7 µM | 2.79 ± 0.13 µM

Reference: publication PMC12119673, “Apoptotic cell death induced by copper (II), manganese (II) and silver (I) complexes containing bridging dicarboxylate and 1,10-phenanthroline ligands: one of the multi-modes of anticancer activity?” (Biometals, 2025)
